Blank lines part the entries; values can stand above or below the compound they belong to. Activity calls are given as the source filed them.
Legend:
[1] = target: T1, Tyrosine-protein phosphatase non-receptor type 7 (Homo sapiens, UniProt P35236); assay: HePTP tyrosine phosphatase activity blockers – biochemical, absorbance, leukemia target, primary screen (AID 521); type: functional
T1 sequence (P35236 whole entry): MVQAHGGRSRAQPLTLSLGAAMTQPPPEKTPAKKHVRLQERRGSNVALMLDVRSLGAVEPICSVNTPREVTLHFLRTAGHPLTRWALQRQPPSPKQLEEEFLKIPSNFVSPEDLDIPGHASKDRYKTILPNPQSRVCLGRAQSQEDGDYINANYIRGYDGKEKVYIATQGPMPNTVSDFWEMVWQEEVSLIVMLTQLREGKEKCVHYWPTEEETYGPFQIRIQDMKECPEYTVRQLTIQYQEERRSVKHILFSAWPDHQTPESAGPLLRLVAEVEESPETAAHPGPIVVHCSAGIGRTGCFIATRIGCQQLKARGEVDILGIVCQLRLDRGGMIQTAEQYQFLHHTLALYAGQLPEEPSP

[2] = target: T2, Corticotropin-releasing factor receptor 2/Corticotropin-releasing factor-binding protein (Homo sapiens, UniProt P24387+Q13324); assay: activators of CRF receptor 2 with binding protein – uHTS hits, confirmation (AID 602473); type: functional; conditions: read-out: EC50_Mean
T2 sequence (Q13324 whole entry): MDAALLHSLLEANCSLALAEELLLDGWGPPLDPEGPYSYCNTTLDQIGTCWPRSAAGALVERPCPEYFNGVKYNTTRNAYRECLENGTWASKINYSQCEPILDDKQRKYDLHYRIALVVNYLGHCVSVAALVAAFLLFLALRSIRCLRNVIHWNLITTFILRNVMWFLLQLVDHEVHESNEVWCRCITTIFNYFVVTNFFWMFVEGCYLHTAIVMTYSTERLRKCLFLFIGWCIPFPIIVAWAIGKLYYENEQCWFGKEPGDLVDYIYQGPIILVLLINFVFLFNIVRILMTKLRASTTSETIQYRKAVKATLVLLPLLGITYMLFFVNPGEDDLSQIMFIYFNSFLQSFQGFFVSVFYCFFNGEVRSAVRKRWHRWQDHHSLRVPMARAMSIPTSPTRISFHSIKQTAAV
T2 sequence (P24387 whole entry): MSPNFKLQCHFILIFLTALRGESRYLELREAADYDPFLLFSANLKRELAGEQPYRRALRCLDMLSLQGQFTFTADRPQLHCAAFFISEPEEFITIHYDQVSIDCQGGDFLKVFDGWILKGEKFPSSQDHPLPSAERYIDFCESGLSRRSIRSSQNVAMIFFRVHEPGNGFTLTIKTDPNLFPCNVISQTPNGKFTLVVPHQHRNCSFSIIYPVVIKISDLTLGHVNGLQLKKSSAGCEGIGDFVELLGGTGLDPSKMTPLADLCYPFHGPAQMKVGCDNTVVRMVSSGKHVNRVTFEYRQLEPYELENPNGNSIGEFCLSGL

[3] = Dd2 parasite growth inhibition in erythrocytes – SYBR Green, dry powder samples, set 9, dose response (AID 1159568); type: functional, cell-based
[4] = target: Protein Tat (Human immunodeficiency virus type 1 group M subtype B (isolate HXB2)(HIV-1), UniProt P04608); type: functional;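 note: tat binding to TAR RNA read out by fluorescence polarization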
[5] = viability loss in THP-1 monocytes – THP-1 cells, cytotoxicity control for Vif-APOBEC3G degradation inhibitor project, dose response (AID 1117359); type: functional; conditions: THP-1
[6] = NIH-3T3 fibroblast cytotoxicity, dose response, cytotoxicity control, cell-based, fluorescence, Alamar Blue, secondary assay (AID 2327); type: functional;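 note: NIH-3T3 mouse fibroblasts cultured with fluconazole at 8 µg/mL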
[7] = fluconazole-exposed Candida albicans growth modulators – fluorescence, retest, confirmation (AID 2467); type: functional, cell-based
[8] = HPDE-C7 pancreatic duct cell viability loss – fluorescence, HTS (AID 430); type: functional, cell-based; conditions: Homo sapiens
[9] = viability loss of HPDE-C7K cells – cell-based, fluorescence, HTS, primary screen (AID 431); type: functional; conditions: Homo sapiens
[10] = target: T3, Estrogen receptor beta (Homo sapiens, UniProt Q92731);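 note: recombinant ER-beta bound to coactivator SRC1 peptide in presence of estradiol agonist; inhibitors block coactivator peptide binding and lower the FRET signal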
[11] = target: T3, Estrogen receptor beta; assay: blockers of SRC-3 recruitment to ERβ – biochemical, ELISA, streptavidin-HRP readout, orthogonal assay, confirmation (AID 1060)
[12] = target: Ephrin type-A receptor 4 (Mus musculus, UniProt Q03137); assay: EphA4 ligand-binding antagonists – biochemical, colorimetric, mouse EphA4, primary screen (AID 689); type: functional
[13] = target: Induced myeloid leukemia cell differentiation protein Mcl-1 (Homo sapiens, UniProt Q07820); type: functional
[14] = target: T4, Heat shock factor protein 1 (Mus musculus, UniProt P38532); assay: enhancement of HSF1-driven luciferase signal – cell-based, NIH3T3, luminescence, dose retest, confirmation (AID 435004); type: functional;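 note: stress induced by proteasome inhibitor MG132 added 30 min after compound; luciferase reporter driven by HSF1 response element in NIH3T3 cells; actives raise luminescence as potentiators of the MG132 stress response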
T4 sequence (P38532 whole entry): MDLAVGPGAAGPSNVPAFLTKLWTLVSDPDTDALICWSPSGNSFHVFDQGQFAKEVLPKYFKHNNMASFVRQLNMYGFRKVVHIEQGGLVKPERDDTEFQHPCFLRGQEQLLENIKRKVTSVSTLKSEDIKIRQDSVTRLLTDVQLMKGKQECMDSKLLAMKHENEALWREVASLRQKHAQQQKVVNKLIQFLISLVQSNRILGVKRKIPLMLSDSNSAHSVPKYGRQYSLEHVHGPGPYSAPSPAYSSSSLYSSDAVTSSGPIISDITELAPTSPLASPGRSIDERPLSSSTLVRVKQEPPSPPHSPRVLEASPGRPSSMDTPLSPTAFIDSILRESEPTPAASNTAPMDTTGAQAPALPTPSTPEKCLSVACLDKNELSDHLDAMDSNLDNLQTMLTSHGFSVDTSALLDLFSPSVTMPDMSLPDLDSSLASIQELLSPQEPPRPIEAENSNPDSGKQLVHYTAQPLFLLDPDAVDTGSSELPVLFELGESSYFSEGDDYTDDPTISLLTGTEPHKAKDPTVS

[15] = target: T5, Aryl hydrocarbon receptor (Homo sapiens, UniProt P35869); assay: Luminescence-based cell-based high throughput dose response assay for activators of the Aryl Hydrocarbon Receptor (AHR). [Related pubchem assays: 2796 (Primary screen (AHR activators in singlicate)), 2845 (Confirmation screen (AHR activators in triplicate)), 434939 (Counterscreen (PXR activators in triplicate)), 2804 (Summary (AHR activators))]; type: ADME
T5 sequence (P35869 whole entry): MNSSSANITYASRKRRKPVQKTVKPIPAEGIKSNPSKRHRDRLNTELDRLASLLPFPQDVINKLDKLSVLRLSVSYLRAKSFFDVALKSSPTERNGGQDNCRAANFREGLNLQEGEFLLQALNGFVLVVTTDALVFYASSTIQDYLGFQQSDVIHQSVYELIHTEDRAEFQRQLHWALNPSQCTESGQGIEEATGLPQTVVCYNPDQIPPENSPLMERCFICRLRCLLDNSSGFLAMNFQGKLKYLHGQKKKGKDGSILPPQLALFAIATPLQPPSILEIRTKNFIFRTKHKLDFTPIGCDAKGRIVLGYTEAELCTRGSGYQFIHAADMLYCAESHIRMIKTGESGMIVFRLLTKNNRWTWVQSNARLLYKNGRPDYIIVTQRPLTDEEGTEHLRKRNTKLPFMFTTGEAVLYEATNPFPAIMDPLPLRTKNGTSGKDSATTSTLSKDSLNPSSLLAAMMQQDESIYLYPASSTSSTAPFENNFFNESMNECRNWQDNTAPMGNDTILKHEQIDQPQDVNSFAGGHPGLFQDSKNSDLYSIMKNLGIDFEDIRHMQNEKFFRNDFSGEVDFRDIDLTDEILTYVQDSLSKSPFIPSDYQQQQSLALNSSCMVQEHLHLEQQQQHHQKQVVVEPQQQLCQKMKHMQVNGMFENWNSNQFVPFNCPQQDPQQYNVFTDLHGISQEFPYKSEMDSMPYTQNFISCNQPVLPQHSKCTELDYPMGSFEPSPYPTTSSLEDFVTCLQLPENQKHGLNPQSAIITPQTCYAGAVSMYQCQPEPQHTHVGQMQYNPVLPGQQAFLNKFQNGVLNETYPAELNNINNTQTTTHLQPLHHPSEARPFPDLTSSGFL

[16] = viability inhibitors of stage V gametocytes – luminescence, dose response (AID 1117278); type: functional, cell-based;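 note: gametocytes exposed to compound for 24 hours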
[17] = viability loss in human Jurkat cells – cell-based, luminescence, cytotoxicity control for P. falciparum gametocyte viability project, dose response (AID 1117277); type: functional;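 note: potency reflects loss of cellular ATP meaning fewer viable cells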
[18] = target: Mitogen-activated protein kinase 10 (Homo sapiens, UniProt P53779); assay: Dose response biochemical screening assay for inhibitors of c-Jun N-Terminal Kinase 3 (JNK3). [Related pubchem assays: 746 ]
Chain of Mitogen-activated protein kinase 10 (P53779 whole entry): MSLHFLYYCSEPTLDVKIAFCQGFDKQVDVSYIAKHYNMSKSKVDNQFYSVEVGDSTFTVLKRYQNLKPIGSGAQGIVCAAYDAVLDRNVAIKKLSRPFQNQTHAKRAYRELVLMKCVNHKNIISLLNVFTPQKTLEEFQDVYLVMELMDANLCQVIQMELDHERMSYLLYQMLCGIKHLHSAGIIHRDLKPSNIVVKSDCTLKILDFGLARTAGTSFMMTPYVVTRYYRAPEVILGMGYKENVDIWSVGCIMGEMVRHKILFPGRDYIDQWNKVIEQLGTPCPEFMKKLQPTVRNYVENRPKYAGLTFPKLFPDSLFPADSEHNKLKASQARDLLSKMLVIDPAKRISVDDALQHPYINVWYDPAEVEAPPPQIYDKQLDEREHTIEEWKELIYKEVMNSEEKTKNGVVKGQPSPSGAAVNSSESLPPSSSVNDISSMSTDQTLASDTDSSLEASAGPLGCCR

T3 sequence (Q92731 whole entry): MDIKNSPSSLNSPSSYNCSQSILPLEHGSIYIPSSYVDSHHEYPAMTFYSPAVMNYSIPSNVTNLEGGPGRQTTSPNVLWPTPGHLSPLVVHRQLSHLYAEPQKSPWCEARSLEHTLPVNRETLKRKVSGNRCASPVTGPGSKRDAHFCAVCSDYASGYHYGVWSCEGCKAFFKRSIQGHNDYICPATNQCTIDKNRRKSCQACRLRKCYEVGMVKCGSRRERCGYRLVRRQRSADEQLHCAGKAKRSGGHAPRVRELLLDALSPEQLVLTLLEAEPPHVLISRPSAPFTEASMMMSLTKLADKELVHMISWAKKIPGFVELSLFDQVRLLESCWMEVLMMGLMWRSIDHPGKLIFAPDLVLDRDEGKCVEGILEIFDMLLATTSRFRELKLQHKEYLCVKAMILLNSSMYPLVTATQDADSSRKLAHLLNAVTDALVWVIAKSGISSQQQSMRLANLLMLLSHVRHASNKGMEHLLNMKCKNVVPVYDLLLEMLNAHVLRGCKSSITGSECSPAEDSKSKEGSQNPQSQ
Chain of Protein Tat (P04608 whole entry): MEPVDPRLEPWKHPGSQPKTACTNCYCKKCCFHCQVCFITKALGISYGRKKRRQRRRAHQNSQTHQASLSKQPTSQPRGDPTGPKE
Chain of Ephrin type-A receptor 4 (Q03137 whole entry): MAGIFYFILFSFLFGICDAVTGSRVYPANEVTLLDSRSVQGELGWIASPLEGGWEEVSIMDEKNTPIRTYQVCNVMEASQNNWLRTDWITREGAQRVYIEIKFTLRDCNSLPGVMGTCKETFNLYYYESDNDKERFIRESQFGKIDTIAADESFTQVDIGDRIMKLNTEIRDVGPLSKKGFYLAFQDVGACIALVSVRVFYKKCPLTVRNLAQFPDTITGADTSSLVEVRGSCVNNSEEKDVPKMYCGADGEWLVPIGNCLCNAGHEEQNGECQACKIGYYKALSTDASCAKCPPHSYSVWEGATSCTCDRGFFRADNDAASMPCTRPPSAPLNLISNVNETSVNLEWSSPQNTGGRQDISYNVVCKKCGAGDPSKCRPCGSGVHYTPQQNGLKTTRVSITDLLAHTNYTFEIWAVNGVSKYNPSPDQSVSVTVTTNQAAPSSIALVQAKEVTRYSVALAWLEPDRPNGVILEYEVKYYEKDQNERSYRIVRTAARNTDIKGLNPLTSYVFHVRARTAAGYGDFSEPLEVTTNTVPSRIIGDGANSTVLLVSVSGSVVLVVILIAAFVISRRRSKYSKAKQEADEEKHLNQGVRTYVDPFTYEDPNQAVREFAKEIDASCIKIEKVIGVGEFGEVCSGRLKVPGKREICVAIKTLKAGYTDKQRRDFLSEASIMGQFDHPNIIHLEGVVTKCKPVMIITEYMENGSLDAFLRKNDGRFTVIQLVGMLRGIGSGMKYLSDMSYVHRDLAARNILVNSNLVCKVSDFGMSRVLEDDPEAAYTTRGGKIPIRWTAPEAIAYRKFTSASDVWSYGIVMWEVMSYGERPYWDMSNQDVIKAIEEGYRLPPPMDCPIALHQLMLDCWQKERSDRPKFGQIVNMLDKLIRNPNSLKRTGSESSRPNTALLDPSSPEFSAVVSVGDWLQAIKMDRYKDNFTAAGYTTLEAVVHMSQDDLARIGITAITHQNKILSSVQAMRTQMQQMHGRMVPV
Chain of Induced myeloid leukemia cell differentiation protein Mcl-1 (Q07820 whole entry): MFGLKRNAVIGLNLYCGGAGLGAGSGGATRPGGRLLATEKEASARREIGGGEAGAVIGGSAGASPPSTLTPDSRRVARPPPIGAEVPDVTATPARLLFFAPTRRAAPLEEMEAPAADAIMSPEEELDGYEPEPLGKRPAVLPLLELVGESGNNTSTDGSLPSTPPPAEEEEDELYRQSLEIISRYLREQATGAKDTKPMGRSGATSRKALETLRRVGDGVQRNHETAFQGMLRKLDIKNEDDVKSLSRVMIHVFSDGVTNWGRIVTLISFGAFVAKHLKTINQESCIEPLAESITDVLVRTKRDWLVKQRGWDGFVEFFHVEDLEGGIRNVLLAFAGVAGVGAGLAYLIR

IC50 [1]: > 100 µM (not active) | EC50 [2]: > 53 µM (inactive)
Compound: CN1CCc2c(sc3c2C(=O)NC(c2cccs2)N3)C1 (stereo not drawn)

Compound: C[C@@H]1CCCCO[C@@H](CN(C)S(=O)(=O)c2ccc(F)cc2)[C@@H](C)CN([C@H](C)CO)C(=O)c2cc(N(C)C)ccc2O1
AC50 [3]: 7.15 µM (active)

IC50 [4]: 3.46 µM (inconclusive)
Compound: COc1ccc(S(=O)(=O)c2c(N)n(Cc3ccco3)c3nc4ccccc4nc23)cc1
CC50 [5]: > 40 µM (active)

Compound: COc1cc(C(Nc2ccccn2)c2ccc3ccc(C)nc3c2O)cc(OC)c1O (stereo not drawn)
EC50 [6]: 5.42 µM (inconclusive) | EC50 [7]: > 38 µM (not active) | EC50 [8]: 4.68 µM (active) | EC50 [9]: 4.83 µM (active) | IC50 [10]: 3.13 µM (active) | IC50 [11]: > 109 µM (not active) | IC50 [12]: 2.02 µM (active) | IC50 [13]: 0.786 µM (active) | EC50 [14]: 4.22 µM (active)

EC50 [15]: 1.74 µM (active)
Compound: Cc1ccccc1-c1nc(-c2cccnc2)no1

Compound: Cc1ccc(-c2csc3ncnc(S)c23)cc1
IC50 [16]: > 109 µM (inactive) | IC50 [17]: 76.2 µM (inactive)

IC50 [18]: 41.2 µM (not active)
Compound: O=C(CNC(=O)c1ccc(Br)o1)Nc1cccc(-c2cnc3ccccc3n2)c1

— ChEMBL document CHEMBL1201862, “PubChem BioAssay data set” (2004)
